What was measured:
Experiment in all cases: Antimicrobial spectrum, minimum inhibitory concentration
Format in all cases: cell-based
Candida albicans TA = conditions: medium TSA
Text: (§1) TSA = Trypticase soy agar [Baltimore Biologicals
(§2) BTSA = Blood trypticase soy agar

[1] = test system: Corynebacterium diphtheriae Toronto; conditions: medium B-TSA
Text: as §1, §2

[2] = test system: Enterobacter cloacae IFO 12937; conditions: IFO12937, medium TSA
Text: as §1, §2

[3] = test system: Escherichia coli NIHJ JC-2; conditions: NIHJJC2, medium TSA
Text: as §1, §2

Escherichia coli O-111 = conditions: O111, medium TSA
Text: as §1, §2

Klebsiella pneumoniae DT = conditions: medium TSA
Text: as §1, §2

[4] = test system: Proteus mirabilis IFO 3849; conditions: IFO3849, medium TSA
Text: as §1, §2

[5] = test system: Proteus vulgaris IFO 3988; conditions: IFO3988, medium TSA
Text: as §1, §2

[6] = test system: Pseudomonas aeruginosa U 31; conditions: U31, medium TSA
Text: as §1, §2

[7] = test system: Pseudomonas morganii IFO 3168; conditions: IFO3168, medium TSA
Text: as §1, §2

[8] = test system: Serratia marcescens IFO 12648; conditions: IFO12648, medium TSA
Text: as §1, §2

[9] = test system: Staphylococcus aureus FDA209P; conditions: medium TSA (Trypticase soy agar)
Text: as §1, §2

[10] = test system: Streptococcus pyogenes E-14; conditions: E14, medium B-TSA (Blood trypticase soy agar)
Text: as §1, §2

[11] = test system: Streptococcus pyogenes S-8; conditions: S8, medium B-TSA
Text: as §1, §2

Measured: MIC

CCN1CCN(C(=O)N[C@@H](C(=O)NC2(OC)CN(S(=O)(=O)O)C2=O)c2ccccc2)C(=O)C1=O (single isomer, unassigned) [Compound, sodium 3-[D(-)-2-(4-ethyl-2,3-dioxo-1-piperazinocarboxamido)phenylacetamido]-3-methoxy-2-oxoazetidine-1-sulfonate]
> 100 µg/mL: Candida albicans TA | [2] | [6] | [7]
12.5 µg/mL: Escherichia coli O-111 | Klebsiella pneumoniae DT | [5]
100 µg/mL: [9]
50 µg/mL: all other assays above
